{"source": "patent US10328018B2", "about": "“Cosmetic use of the essential oil of Laserpitium siler L. against the signs of aging of the skin and as a skin antioxidant” (L'OREAL, priority 2012, dated 2019)", "key": {"type I procollagen": {"tested_on": "type I procollagen", "assay": "Synthesis/secretion of type I procollagen by ELISA (CICP) on NHDF dermal fibroblasts", "format": "cell-based, human", "conditions": "100 μM, 72 h, control without treatment=100%", "procedure": "The study consists in evaluating, on NHDF (Normal Human Dermal Fibroblasts) dermal fibroblasts, the effects of the essential oil of […]. of example 1, at two concentrations, over the following parameters: • the synthesis of type I procollagen by ELISA (CICP, Cross-linked C-telopeptides of Type I collagen) after 72 h of contact, and • the abundance of MMP-1 secreted in the culture medium after 72 h of contact. The study was carried out on NHDF human dermal fibroblasts (ATCC, CRL-2522, origin: foreskin) cultured in monolayer in a medium of DMEM (Invitrogen, 31885-049) and antibiotics (penicillin/streptomycin, Invitrogen, 15140-122), and cultured in serum-free medium for studies on type I collagen and on MMP-1. The fibroblasts were seeded in 24-well plates, 24 h before the treatment with the test and reference elements. For the measurement of the synthesis/secretion of type I procollagen and for the quantification of MMP-1, the test elements and also the reference elements (TGF-β1 (Transforming Growth Factor-β1) for MMP-1 and vitamin C for CICP) were applied for 72 h in the absence of serum. The supernatants of the cultures were harvested after 72 h of treatment with the active agents and the reference element (in this case, vitamin C at 1000 μM). These were frozen at -20° C. until the day of the analysis. […]"}, "MMP-1": {"tested_on": "MMP-1", "assay": "Abundance of MMP-1 secreted in culture medium of NHDF dermal fibroblasts (pro-MMP-1 ELISA)", "format": "cell-based, human", "conditions": "2.5 ng/ml, 72 h, control without treatment=100%", "procedure": "The study consists in evaluating, on NHDF (Normal Human Dermal Fibroblasts) dermal fibroblasts, the effects of the essential oil of Laserpitium Siler L. of example 1, at two concentrations, over the following parameters: • the synthesis of type I procollagen by ELISA (CICP, Cross-linked C-telopeptides of Type I collagen) after 72 h of contact, and • the abundance of MMP-1 secreted in the culture medium after 72 h of contact.\nThe study was carried out on NHDF human dermal fibroblasts (ATCC, CRL-2522, origin: foreskin) cultured in monolayer in a medium of DMEM (Invitrogen, 31885-049) and antibiotics (penicillin/streptomycin, Invitrogen, 15140-122), and cultured in serum-free medium for studies on type I collagen and on MMP-1.\nThe fibroblasts were seeded in 24-well plates, 24 h before the treatment with the test and reference elements.\nFor the measurement of the synthesis/secretion of type I procollagen and for the quantification of MMP-1, the test elements and also the reference elements (TGF-β1 (Transforming Growth Factor-β1) for MMP-1 and vitamin C for CICP) were applied for 72 h in the absence of serum. […]\nThe quantification of MMP-1 was carried out with a specific kit (Human pro-MMP-1 Quantikine ELISA, R&D System), according to the instructions given by the supplier."}, "Collagen IV": {"tested_on": "Collagen IV", "assay": "Production of collagen IV by normal human keratinocytes (in situ immunolabeling, image analysis)", "format": "cell-based", "conditions": "TGF-β at 10 ng/ml, NHEK, 72 hours", "procedure": "The purpose of this study was to evaluate the effects of the essential oil of Laserpitium Siler L. according to example 1 on the dermo-epidermal junction marker (Coll. IV) modulated during aging by immunohistochemistry techniques.\n• Culture medium: Keratinocyte-SFM supplemented with: • Epidermal Growth Factor (EGF) 0.25 ng/ml • Pituitary extract (PE) 25 μg/ml • Gentamicin 25 μg/ml • Test medium: Keratinocyte-SFM supplemented with: • Gentamicin 25 μg/ml\nNormal human keratinocytes (NHEK—Ref: K341) were seeded and cultured in a culture medium (Keratinocyte-SFM for 24 hours). The culture medium was replaced by the test medium containing, or not containing (control), the test compounds or reference compounds (TGF-β at 10 ng/ml), then the cells were incubated for 72 hours at 37° C., 5% CO2.\nAfter incubation, the culture medium was removed and the cells were rinsed, fixed and permeabilized.\nThe cells were then labeled with the primary antibody targeted against the protein of interest (Collagen IV).\nThe relative quantification was carried out by image analysis after in situ immuno labeling.\nThe image acquisition was carried out with a high-resolution imaging system: INCell Analyser™ 1000."}}, "note": "Marks after values point to notes of the source that are not given here.", "data": [{"molecule": "O=C1O[C@H]([C@@H](O)CO)C(O)=C1O", "note": "[Vitamin C]", "values": [{"measurement": "CICP (protein abundance)", "setting": "type I procollagen", "value": 160, "unit": "%***"}]}, {"molecule": "TGF-β1: Transforming Growth Factor-β1, reference element for MMP-1", "values": [{"measurement": "MMP-1 (protein abundance)", "setting": "MMP-1", "value": 47, "unit": "%***"}]}, {"molecule": "TGF-β: positive control / reference compound at 10 ng/ml in the collagen IV test", "values": [{"measurement": "increase in expression of collagen IV compared to the control", "setting": "Collagen IV", "value": 594, "unit": "%"}]}]}
